These results are taken from ChEMBL document CHEMBL1201862, “PubChem BioAssay data set” (2004).

For assay [1], the target named is T1, Sentrin-specific protease 8 (Homo sapiens, UniProt Q96LD8).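 Note: luminescence read-out of SENP8 inhibition, dose-response confirmation following an ultra-high-throughput screen.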
T1 sequence (Q96LD8 whole entry): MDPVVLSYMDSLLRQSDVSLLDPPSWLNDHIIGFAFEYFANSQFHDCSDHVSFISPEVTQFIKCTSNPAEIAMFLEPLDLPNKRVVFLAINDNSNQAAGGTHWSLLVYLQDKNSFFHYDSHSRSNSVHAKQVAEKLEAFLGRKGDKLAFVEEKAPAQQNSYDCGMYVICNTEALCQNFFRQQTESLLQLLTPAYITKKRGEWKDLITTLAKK
In kind it is functional.

Assay [2] concerns the target T2, Protein skinhead-1 (Caenorhabditis elegans, UniProt P34707).
T2 sequence (P34707 whole entry): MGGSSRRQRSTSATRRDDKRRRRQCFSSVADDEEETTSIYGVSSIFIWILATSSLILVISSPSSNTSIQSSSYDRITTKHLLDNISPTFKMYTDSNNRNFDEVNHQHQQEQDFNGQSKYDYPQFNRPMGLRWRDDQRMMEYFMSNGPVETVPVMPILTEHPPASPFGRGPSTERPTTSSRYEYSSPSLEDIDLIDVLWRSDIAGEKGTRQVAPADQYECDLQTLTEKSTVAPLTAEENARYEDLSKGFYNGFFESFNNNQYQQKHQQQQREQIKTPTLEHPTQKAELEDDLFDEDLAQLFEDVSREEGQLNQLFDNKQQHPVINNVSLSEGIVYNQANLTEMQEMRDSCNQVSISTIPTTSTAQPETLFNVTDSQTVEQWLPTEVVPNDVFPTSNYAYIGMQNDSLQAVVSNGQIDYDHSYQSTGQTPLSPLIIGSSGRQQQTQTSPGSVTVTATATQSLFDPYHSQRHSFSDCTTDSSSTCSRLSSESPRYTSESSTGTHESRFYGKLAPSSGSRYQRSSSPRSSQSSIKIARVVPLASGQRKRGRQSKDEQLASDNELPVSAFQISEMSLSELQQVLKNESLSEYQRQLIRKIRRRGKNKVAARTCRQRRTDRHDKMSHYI
In kind it is functional.

In assay [3] the target is T3, Sentrin-specific protease 6 (Homo sapiens, UniProt Q9GZR1).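 Note: Luminescence-based dose-response confirmatory assay of SENP6 inhibition, following up an ultra-high-throughput screen.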
T3 sequence (Q9GZR1 whole entry): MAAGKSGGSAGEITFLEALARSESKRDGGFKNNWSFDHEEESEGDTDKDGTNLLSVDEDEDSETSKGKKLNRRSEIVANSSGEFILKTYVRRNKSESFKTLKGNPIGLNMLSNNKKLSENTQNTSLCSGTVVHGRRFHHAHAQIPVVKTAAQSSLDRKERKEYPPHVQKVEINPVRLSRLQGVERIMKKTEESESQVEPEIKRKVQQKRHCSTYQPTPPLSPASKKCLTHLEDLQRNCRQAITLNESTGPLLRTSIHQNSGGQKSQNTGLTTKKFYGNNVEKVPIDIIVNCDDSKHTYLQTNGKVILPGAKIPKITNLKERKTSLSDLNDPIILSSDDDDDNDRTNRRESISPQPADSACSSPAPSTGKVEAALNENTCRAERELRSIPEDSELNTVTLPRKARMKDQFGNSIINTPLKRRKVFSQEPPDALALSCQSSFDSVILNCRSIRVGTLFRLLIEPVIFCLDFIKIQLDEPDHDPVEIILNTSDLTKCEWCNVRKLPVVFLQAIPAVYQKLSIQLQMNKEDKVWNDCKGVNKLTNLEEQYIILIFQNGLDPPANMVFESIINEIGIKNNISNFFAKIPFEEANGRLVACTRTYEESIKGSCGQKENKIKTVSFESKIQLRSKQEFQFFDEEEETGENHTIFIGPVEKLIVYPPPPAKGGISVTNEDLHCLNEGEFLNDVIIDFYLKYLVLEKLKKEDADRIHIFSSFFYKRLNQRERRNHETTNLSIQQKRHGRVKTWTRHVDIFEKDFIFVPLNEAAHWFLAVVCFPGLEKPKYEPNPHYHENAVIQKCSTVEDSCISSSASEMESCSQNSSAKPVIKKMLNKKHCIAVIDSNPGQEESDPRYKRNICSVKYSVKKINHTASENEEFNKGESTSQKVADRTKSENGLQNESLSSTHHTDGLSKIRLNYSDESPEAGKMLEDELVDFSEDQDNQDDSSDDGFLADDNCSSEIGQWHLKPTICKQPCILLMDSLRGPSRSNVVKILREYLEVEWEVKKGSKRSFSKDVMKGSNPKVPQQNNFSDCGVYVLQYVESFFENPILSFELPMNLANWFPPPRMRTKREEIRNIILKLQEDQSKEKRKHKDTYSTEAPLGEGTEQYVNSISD
In kind it is functional.

Assay [4] concerns the target T4, Sentrin-specific protease 7 (Homo sapiens, UniProt Q9BQF6).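 Note: Luminescence-based dose-response confirmation of ultra-high-throughput screening hits, measuring inhibition of SENP7.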
T4 sequence (Q9BQF6 whole entry): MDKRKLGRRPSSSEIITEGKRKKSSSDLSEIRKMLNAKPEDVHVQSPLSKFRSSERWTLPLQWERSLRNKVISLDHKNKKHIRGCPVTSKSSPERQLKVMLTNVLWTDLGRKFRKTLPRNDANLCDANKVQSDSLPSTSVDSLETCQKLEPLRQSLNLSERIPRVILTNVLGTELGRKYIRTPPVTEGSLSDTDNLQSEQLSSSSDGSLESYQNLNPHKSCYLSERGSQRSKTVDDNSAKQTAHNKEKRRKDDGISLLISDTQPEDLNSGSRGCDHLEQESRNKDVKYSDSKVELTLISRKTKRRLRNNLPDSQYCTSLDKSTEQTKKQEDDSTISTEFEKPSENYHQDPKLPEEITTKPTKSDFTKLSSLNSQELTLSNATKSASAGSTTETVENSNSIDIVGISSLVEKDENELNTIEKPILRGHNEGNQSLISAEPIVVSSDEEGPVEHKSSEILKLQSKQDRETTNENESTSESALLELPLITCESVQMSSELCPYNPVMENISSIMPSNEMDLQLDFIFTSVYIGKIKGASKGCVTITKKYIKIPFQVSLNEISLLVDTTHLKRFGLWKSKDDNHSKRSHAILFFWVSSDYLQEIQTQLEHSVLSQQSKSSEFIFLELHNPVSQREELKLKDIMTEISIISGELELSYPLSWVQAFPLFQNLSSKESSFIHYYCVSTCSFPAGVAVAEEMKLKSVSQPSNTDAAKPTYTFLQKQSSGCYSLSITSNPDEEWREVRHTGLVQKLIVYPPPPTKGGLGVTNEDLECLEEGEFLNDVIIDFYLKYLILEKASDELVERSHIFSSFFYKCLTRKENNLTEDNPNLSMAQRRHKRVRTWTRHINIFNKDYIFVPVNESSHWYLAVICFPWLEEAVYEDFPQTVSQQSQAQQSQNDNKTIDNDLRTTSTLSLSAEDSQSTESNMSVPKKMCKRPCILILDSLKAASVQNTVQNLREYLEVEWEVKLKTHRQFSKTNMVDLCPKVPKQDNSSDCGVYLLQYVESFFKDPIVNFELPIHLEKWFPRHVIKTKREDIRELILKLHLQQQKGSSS
The format is functional.

Assay [5] concerns the target T5, Caspase-3 (Homo sapiens, UniProt P42574).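 Note: Dose-response selectivity test against caspase-3 for candidate inhibitors of sentrin-specific proteases (SENPs).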
T5 sequence (P42574 whole entry): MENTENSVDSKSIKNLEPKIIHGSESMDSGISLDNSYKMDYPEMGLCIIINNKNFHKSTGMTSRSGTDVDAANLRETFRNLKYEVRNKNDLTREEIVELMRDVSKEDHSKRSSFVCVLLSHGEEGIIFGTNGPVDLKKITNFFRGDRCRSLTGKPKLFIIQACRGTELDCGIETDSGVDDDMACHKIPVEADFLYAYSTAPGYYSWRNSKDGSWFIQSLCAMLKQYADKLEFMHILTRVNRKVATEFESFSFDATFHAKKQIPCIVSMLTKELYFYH
The format is functional.

Assay [6] addresses T6, High affinity choline transporter 1 (Homo sapiens, UniProt Q9GZV3).
T6 sequence (Q9GZV3 whole entry): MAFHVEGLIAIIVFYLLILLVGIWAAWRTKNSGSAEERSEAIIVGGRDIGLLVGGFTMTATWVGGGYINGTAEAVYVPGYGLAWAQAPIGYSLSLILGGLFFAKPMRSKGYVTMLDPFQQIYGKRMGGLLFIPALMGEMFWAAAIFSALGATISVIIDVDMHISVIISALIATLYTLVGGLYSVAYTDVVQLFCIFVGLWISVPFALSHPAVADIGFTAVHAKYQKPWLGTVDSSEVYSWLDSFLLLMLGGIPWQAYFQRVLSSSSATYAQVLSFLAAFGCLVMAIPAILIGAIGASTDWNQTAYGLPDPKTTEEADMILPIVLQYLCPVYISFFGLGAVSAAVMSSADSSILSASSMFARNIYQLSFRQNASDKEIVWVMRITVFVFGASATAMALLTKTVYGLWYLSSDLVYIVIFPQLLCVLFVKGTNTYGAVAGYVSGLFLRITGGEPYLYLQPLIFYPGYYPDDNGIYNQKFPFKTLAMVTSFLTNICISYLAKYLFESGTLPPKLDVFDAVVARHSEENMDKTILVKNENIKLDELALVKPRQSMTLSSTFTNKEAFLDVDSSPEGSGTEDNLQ
The experiment in a line: CHT inhibitors, dose response, cell-based, 10-point CRC, membrane potential dye (AID 588401).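 Note: membrane potential dye fluorescence of choline-evoked depolarization via CHT.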 In kind it is functional.

Assay [7] addresses T6, High affinity choline transporter 1. The assay is described as follows: CHT inhibitors, dose response, cell-based, 5-point CRC, membrane potential dye (AID 504840). In kind it is functional.
Assay [8] deals with T7, RNA-binding protein pos-1 (Caenorhabditis elegans, UniProt G5EF15).
T7 sequence (G5EF15 whole entry): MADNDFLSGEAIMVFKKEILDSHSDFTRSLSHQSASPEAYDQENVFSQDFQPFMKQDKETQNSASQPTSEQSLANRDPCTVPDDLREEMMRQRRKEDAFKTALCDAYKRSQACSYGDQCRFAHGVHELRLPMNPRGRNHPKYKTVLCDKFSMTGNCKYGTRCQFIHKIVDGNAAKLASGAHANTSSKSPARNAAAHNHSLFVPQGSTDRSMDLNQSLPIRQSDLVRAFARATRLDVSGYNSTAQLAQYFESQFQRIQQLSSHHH
The assay is described as follows: inhibitors of POS-1/mex-3 RNA binding, dose response, biochemical, fluorescence polarization (AID 1964).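 Note: purified POS-1 fused to maltose binding protein made in E. coli; potency of compounds blocking POS-1 binding to fluorescent RNA.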

Assay [9] addresses T8, Zinc finger protein mex-5 (Caenorhabditis elegans, UniProt Q9XUB2).
T8 sequence (Q9XUB2 whole entry): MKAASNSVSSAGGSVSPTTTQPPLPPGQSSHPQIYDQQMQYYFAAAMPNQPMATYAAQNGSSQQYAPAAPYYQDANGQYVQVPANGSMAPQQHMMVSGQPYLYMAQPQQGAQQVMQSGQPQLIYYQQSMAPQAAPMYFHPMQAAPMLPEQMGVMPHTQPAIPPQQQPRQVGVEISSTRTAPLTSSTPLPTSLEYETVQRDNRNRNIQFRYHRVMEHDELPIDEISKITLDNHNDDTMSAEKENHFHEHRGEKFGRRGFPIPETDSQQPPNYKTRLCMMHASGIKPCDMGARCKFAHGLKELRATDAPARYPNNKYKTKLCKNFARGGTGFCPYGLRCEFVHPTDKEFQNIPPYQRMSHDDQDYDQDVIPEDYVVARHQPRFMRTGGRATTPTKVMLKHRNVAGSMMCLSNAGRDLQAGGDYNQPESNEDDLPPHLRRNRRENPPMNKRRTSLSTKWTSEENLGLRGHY
The assay is described as follows: MEX-5/TCR-2 RNA interaction inhibitors, dose response, biochemical, C. elegans, fluorescence polarization (AID 1960).

Active and inactive are the calls of the source.

`Clc1ccc(-c2nnc(-c3ccccc3Cl)o2)cc1`: the concentration for half-maximal inhibition (IC50) in [1] was 8.03 µM (active); in assay [2], > 100 µM (inactive); in assay [3], 3.19 µM (active); in assay [4] it was 2.65 µM (active); in assay [5], 3.19 µM (active).
Turning to `Cc1n[nH]c(C)c1Sc1ccccc1/N=C/c1cc(Cl)cc([N+](=O)[O-])c1O`, the IC50 in [6] is 6.23 µM (active); in assay [7], 8.88 µM (active). Moreover, the EC50 in assay [8] was > 300 µM (inconclusive); in assay [9], 7.57 µM (inconclusive).
For the compound `O=C(C[n+]1cccc(Br)c1)c1ccc(-c2ccccc2)cc1`, the results for the half-maximal inhibitory concentration (IC50) in assay [6] and in assay [7] were 1 µM (active) and 2.83 µM (active), respectively.
For `CCC(C)c1ccc(NC(S)=NC(C)C2CCCO2)cc1` (stereo unspecified), the values for the IC50 in assay [6] and in assay [7] were 4.09 µM (active) and 5.01 µM (active), respectively.
For the compound `O=C(/C=C/c1ccco1)Nc1ccc(N2CCCC2)cc1`, the IC50 in [1], in assay [3], in assay [4] and in [5] was > 100 µM (inactive) each time.
`Brc1ccc(/C=N/Nc2ccccn2)cc1`: the IC50 is > 100 µM (inactive) in [1], 4.07 µM (active) in assay [3], 2.96 µM (active) in assay [4] and 15.8 µM (active) in [5].
